# Experimental data as given in PubChem BioAssay (NCI).
#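 Grown in 96-well plates, cells were treated for 48 hours with each compound at five concentrations. Insufficient inhibition: endpoint recorded as highest concentration tested. GI50 is the concentration that inhibits growth by half. TGI marks complete inhibition of growth.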
# Key:
# Test in all cases: NCI anticancer screen, dose series, 48 h
# A498 renal = system: A498 renal
# A549 NSCLC = system: A549 NSCLC
# ACHN renal = system: ACHN renal
# HCT-116 colon = system: HCT-116 colon
# HOP-92 NSCLC = system: HOP-92 NSCLC
# MCF7 breast = system: MCF7 breast
# MOLT-4 leukemia = system: MOLT-4 leukemia
# OVCAR-5 ovarian = system: OVCAR-5 ovarian
# SK-OV-3 ovarian = system: SK-OV-3 ovarian
# SNB-19 CNS = system: SNB-19 CNS
Compound,GI50 (A498 renal) [µM],TGI (A498 renal) [µM],GI50 (A549 NSCLC) [µM],TGI (A549 NSCLC) [µM],GI50 (ACHN renal) [µM],TGI (ACHN renal) [µM],GI50 (HCT-116 colon) [µM],TGI (HCT-116 colon) [µM],GI50 (HOP-92 NSCLC) [nM],TGI (HOP-92 NSCLC) [µM],GI50 (MCF7 breast) [µM],TGI (MCF7 breast) [µM],GI50 (MOLT-4 leukemia) [nM],TGI (MOLT-4 leukemia) [µM],GI50 (OVCAR-5 ovarian) [µM],TGI (OVCAR-5 ovarian) [µM],GI50 (SK-OV-3 ovarian) [µM],TGI (SK-OV-3 ovarian) [µM],GI50 (SNB-19 CNS) [µM],TGI (SNB-19 CNS) [µM]
COc1cccc(-n2cc(-c3nc(Nc4cc(C)[nH]n4)c4ccccc4n3)nn2)c1,0.291,7.08,2.33,11.4,0.261,7.04,2.1,10.5,1670,9.53,4.76,14,2010,9.8,3.51,12,2.34,10.8,6.61,15.7
CCC(C)[C@H](NC(=O)NC(=O)NC(=O)CI)C(=O)OC (stereo not given in full),16.2,30.5,19.5,37,2.11,4.43,6.05,18.3,2670,7.3,3.02,12.9,2470,6.74,15,32.3,17.2,31.4,15.4,31.6
COc1ccc(CNC(C)C(=O)O)cc1 (stereo not given),,> 100,,> 100,,> 100,,> 100,,> 100,,> 100,,> 100,,> 100,,> 100,,> 100
c1ccc(Nc2nc(-c3ccccn3)cs2)nc1,0.266,13.5,0.623,> 35,0.341,> 100,0.326,21.6,2490,> 56.5,0.508,> 100,301,> 27.2,2.35,> 100,0.74,> 100,0.997,> 100
CCCCCCC/C=C/[C@H]1O[C@]2(O)C(=O)C=C3C[C@@H](O[C@@H]4O[C@H](CO)[C@@H](O)C(O)[C@@H]4O)C[C@@H]3[C@H]2C=C1C (stereo not given in full),4.41,9.13,5.98,23.4,1.13,4.28,0.95,3.64,3300,11.3,1.05,7.88,853,2.51,4.74,10.8,5.95,16.4,3.52,8.04
CC1(C)CCCC(C)(C2CCC3(C)C2C(O)CC2C4(C)CCC(O)C(C)(C)C4C(O)CC23C)O1 (stereo not given),,28.1,,24.4,,24.5,,> 100,,30.6,,29.3,,16.3,,38.4,,32,,25.5
O=C(c1ccco1)c1c(C(F)(F)F)nc2ccc(C(F)(F)F)cc2[n+]1[O-],42.4,> 79.7,> 64.4,> 100,23.4,60,29.3,> 100,21000,49.2,33.6,> 100,> 100000,> 100,46.9,> 100,35,> 100,27.5,> 79.7
Clc1cc2c(nn1)Nc1ccccc1S2,> 100,> 100,> 100,> 100,> 100,> 100,> 100,> 100,> 100000,> 100,> 100,> 100,> 100000,> 100,> 100,> 100,> 100,> 100,> 100,> 100
COc1cc2oc(-c3ccc(O)cc3O)c(CC=C(C)C)c(=O)c2c(O)c1/C=C/C(C)C,,5.12,,7.75,,8.12,,3.93,,7.3,,7.56,,5.24,,18.7,,20.6,,9.42
NC(=S)N/N=C/c1ccc(N)cn1,,> 10,,> 10,,7.65,,> 10,,> 10,,> 10,,> 10,,> 10,,> 10,,> 10
C=C1CCC2C3(C)COC(c4c(OC)cccc4OC)OC3CCC2(C)C1C/C=C1/C(=O)OCC1O (stereo not given),15,29.6,3.14,11.6,2.38,5.85,1.64,3.11,2920,8.51,2.53,12.8,3220,13.3,3.39,8.63,5.71,20.3,14.6,29.9
CC(=O)c1ccc(Nc2nc(Nc3ccc(F)cc3)nc(Nc3ccc(F)cc3)n2)cc1,4.69,18.3,5.81,32.5,14.7,45.1,12.7,> 100,5640,31.5,4.12,61.2,4390,> 100,35.1,> 100,10.5,83.6,16.4,53.8
N#Cc1ccsc1NC(=O)COC(=O)c1cccc(S(=O)(=O)N2CCc3ccccc32)c1,> 100,> 100,45.2,> 100,50.5,> 100,4.78,> 100,40100,> 100,19.8,> 100,6680,> 100,35.2,> 100,> 100,> 100,55.8,> 100
O=C1C=CC(=Nc2ccccc2)c2ccccc21,,39.4,,31,,27.4,,24.4,,28.4,,21.4,,36.2,,33.4,,80.5,,> 100
C[N+](C)(CCCCCC[N+](C)(C)CCCN1C(=O)c2cc3ccccc3cc2C1=O)CCCN1C(=O)c2cc3ccccc3cc2C1=O,> 37.5,> 37.5,> 37.5,> 37.5,> 37.5,> 37.5,> 37.5,> 37.5,> 37500,> 37.5,> 37.5,> 37.5,> 37500,> 37.5,> 37.5,> 37.5,> 37.5,> 37.5,> 37.5,> 37.5
CCCC[n+]1c(/C=C\c2c(OC)cc(OC)cc2OC)ccc2ccccc21,0.157,2.87,1.18,10.5,3.01,11.8,0.413,3.48,502,4.8,0.494,4.73,1640,8.92,2.26,10.3,1.98,8.83,0.604,6.79
COC(=O)c1ccc2c(c1)C(=O)c1c-2n(C)c(=O)c2cc(OC)c(OC)cc12,> 50,> 50,> 50,> 50,> 50,> 50,40.1,> 50,18800,> 50,> 50,> 50,> 50000,> 50,> 50,> 50,> 50,> 50,> 50,> 50
CC[C@@H](C(=O)[C@H](C)[C@H](O)[C@@H](C)[C@H]1O[C@H]([C@@H](CC)C(=O)O)CC[C@H]1C)C1O[C@]2(C=C[C@@H](O)[C@]3(CC[C@@](C)([C@H]4CC[C@](O)(CC)[C@H](C)O4)O3)O2)[C@H](C)C[C@@H]1C (stereo not given in full),0.044,0.48,0.267,21.6,0.77,40.2,0.722,35.7,690,5.78,0.148,11.9,1260,4.75,1.07,69.2,4.1,51.1,0.204,4.25
CN(C)CCC=C1c2ccccc2C(C)(C)c2ccccc21,12.9,26,15.8,32,14.7,27.9,10.3,22.4,1880,14.7,10.2,22.5,7180,23,15.9,31.4,15.5,28.8,15.2,28.5
